Test results taken from patent publication US12195482B1 (Arcus Biosciences, Inc., priority 2022, dated 2025).

Target: T1, Axl (Homo sapiens, UniProt P30530)
T1 sequence (P30530 26-894): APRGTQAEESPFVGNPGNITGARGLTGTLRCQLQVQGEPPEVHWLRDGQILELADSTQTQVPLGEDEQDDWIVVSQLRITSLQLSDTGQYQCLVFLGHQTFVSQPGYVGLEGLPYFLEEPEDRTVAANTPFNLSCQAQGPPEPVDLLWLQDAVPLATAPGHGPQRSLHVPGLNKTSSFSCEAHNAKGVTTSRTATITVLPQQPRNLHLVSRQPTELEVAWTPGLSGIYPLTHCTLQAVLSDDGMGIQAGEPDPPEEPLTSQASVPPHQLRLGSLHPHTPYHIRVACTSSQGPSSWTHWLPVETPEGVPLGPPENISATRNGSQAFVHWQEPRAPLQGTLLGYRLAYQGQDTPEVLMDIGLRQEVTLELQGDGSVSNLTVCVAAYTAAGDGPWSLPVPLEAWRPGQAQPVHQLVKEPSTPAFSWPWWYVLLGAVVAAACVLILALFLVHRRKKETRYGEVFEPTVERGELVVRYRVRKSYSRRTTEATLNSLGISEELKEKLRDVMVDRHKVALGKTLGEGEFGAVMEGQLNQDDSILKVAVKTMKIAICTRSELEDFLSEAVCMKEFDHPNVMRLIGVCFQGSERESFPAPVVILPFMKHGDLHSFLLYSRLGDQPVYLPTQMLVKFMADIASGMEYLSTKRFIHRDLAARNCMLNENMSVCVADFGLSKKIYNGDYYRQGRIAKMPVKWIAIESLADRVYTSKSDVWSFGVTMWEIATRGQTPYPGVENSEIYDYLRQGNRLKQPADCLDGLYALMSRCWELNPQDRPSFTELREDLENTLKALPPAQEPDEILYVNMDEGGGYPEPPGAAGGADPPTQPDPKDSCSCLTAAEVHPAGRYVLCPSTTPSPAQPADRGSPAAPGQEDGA
Test: Axl NanoBRET intracellular kinase assay (intracellular binding, K-5 tracer displacement)
Parameters: host or cells: HEK-293
Conditions: HEK-293 cells transfected with Axl-NanoLuc, 0.35 μM K-5 NanoBRET tracer; read-out: Cell Binding AXL
Procedure, shortened: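 HEK-293 cells transiently transfected with Axl-NanoLuc, 8K cells/well at 0.5% DMSO, pre-incubated 1 h with compound at 37 °C, then 2 h with 0.35 μM K-5 tracer. BRET ratio 610/450 nm; IC50 by 4-parameter fit of tracer displacement.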

## Cc1nncn1-c1ccc(-c2n[nH]c3ncc(-c4ccc5c(c4)CC[C@@H](N4C6COCC4C6)CC5)cc23)cc1 [Example 11, 6-[(7S)-2-{3-[4-(3-Methyl-4H-1,2,4-triazol-4-yl)phenyl]-1H-pyrazolo[3,4-b]pyridin-5-yl}-6,7,8,9-tetrahydro-5H-benzo[7]annulen-7-yl]-3-oxa-6-azabicyclo[3.1.1]heptane]
  IC50: 100 to 1000 nM
